# Reference: US20210405025A1, “IDENTIFYING COMPOUNDS FOR TREATING CANCER AND USE THEREOF” (THE UAB RESEARCH FOUNDATION, priority 2018, published 2021)
# Where a name gives a salt, the structure may show the parent alone.
# System: relapsed AML cells
# Assay: Drug sensitivity assay, 1,536-well, 3-day culture with individual approved drugs at 10 μM, viability by alamarBlue
# Format: cell-based, human
# Settings: not given
# Procedure, shortened: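 Three-day exposure of primary AML cells to individual drugs in 1,536-well format, viability read as percent live cells. Cells were thawed, cultured overnight, sorted by FACS for viable blasts and plated at 4,000-4,500 cells/5 μL in cytokine-supplemented IMDM/BIT medium.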
row,Compound,#Cases >70% cell death
1,COC(=O)C1=C(C)NC(C)=C(C(=O)OCCCN2CCC(c3ccccc3)(c3ccccc3)CC2)[C@@H]1c1cccc([N+](=O)[O-])c1 [DEXNIGULDIPINE],8
2,C[CH2][Hg][S]c1ccccc1C(=O)[O-].[Na+] [THIMEROSAL],18

# Same assay, conditions: number of relapsed AML cases out of 18 tested with >70% cell death; 10 μM, 3-day culture
row,Compound,#Cases >70% cell death
1,COc1cc(C(=O)OCCCN2CCCN(CCCOC(=O)c3cc(OC)c(OC)c(OC)c3)CC2)cc(OC)c1OC [DILAZEP DIHYDROCHLORIDE],2
2,Cn1cc(-c2[nH]c3cc(NC(=O)[C@H](N)C4CCCCC4)cc4c3c2C=NNC4=O)cn1 [PF-00477736],13
3,CC(C)NCC(O)COc1ccc(CC(N)=O)cc1 (stereo not drawn) [ATENOLOL],1
4,Cc1ccc(Nc2nccc(N(C)c3ccc4c(C)n(C)nc4c3)n2)cc1S(N)(=O)=O [PAZOPANIB],4
5,COc1ccc(F)c(F)c1C(=O)c1cnc(NC2CCN(S(C)(=O)=O)CC2)nc1N [R-547],18
6,CC(C)(Sc1cc(C(C)(C)C)c(O)c(C(C)(C)C)c1)Sc1cc(C(C)(C)C)c(O)c(C(C)(C)C)c1 [PROBUCOL],4
7,CCc1cc(Cl)c(OC)c(C(=O)NC[C@@H]2CCCN2CC)c1O [ETICLOPRIDE HYDROCHLORIDE],1
8,CC[C@@]1(O)C(=O)OCc2c1cc1n(c2=O)Cc2cc3ccccc3nc2-1 [CAMPTOTHECIN],12
9,COC1=CC(c2cc3ccccc3[nH]2)=N/C1=C\c1[nH]c(C)cc1C [OBATOCLAX],2
10,"C=CC(=O)Nc1cc(Nc2nccc(-c3cn(C)c4ccccc34)n2)c(OC)cc1N(C)CCN(C)C [OSIMERTINIB (tagrisso), OSIMERTINIB]",1
11,CCC[C@H](Nc1nc(-c2ccc(NC(=O)NCC)c(OC)c2)ncc1C)c1cccnc1 [LEXIBULIN],13
12,CCN[C@H]1C[C@H](C)S(=O)(=O)c2sc(S(N)(=O)=O)cc21 [DORZOLAMIDE],4
13,CC(C)OC(=O)CCC/C=C\C[C@@H]1[C@@H](CC[C@@H](O)CCc2ccccc2)[C@H](O)C[C@@H]1O [LATANOPROST],1
14,Cc1ccc(C(=O)Nc2ccc(CN3CCN(C)CC3)c(C(F)(F)F)c2)cc1C#Cc1cnc2cccnn12 [PONATINIB],18
15,ARSENIC TRIOXIDE DIETHANOLAMINE SALT,16
16,Cc1ccc(C(=O)N(CCCN)[C@@H](c2oc3cc(Cl)ccc3c(=O)c2Cc2ccccc2)C(C)C)cc1 [SB743921],18
17,CC1(C)CC[C@]2(C(=O)O)CC[C@]3(C)[C@H](C(=O)C=C4[C@@]5(C)C=C(C#N)C(=O)C(C)(C)[C@@H]5CC[C@]43C)[C@@H]2C1 [BARDOXOLONE],12
18,Nc1nc2nn[nH]c2c(=O)[nH]1 [8-AZAGUANINE],1
19,Cn1c(=O)c2c(ncn2CC2OCCO2)n(C)c1=O [DOXOFYLLINE],1
20,"Cc1nccn1CC1CCc2c(c3ccccc3n2C)C1=O (stereo not drawn) [ONDANSETRON (Zofran), ONDANSETRON]",1
21,OC1(c2ccc(Cl)c(C(F)(F)F)c2)CCN(CCCC(c2ccc(F)cc2)c2ccc(F)cc2)CC1 [PENFLURIDOL],14

row,Compound,#Cases >70% cell death
1,C[n+]1c2cc(N)ccc2cc2ccc(N)cc21.[Cl-] [ACRIFLAVINIUM HYDROCHLORIDE],5
2,IVERMECTIN,18
3,CC[C@@H](C(=O)[C@@H](C)[C@@H](O)[C@H](C)CCc1ccc(C)c(O)c1C(=O)O)[C@H]1O[C@](CC)([C@H]2CC[C@](O)(CC)[C@H](C)O2)C[C@@H]1C [LASALOCID SODIUM],10
4,CN1CCCC(n2nc(Cc3ccc(Cl)cc3)c3ccccc3c2=O)CC1 (stereo not drawn) [AZELASTINE],2
5,CC(=O)O[C@@]12CO[C@@H]1C[C@H](O)[C@@]1(C)C(=O)[C@H](O)C3=C(C)[C@@H](OC(=O)[C@H](O)[C@@H](NC(=O)OC(C)(C)C)c4ccccc4)C[C@@](O)([C@@H](OC(=O)c4ccccc4)[C@H]21)C3(C)C [DOCETAXEL],5
6,O=C1CC2(CCCC2)CC(=O)N1CCNCC1COc2ccccc2O1 (stereo not drawn) [BINOSPIRONE MESYLATE],1
7,CCC1=C[C@@H]2CN(CCc3c([nH]c4ccccc34)[C@@](C(=O)OC)(c3cc4c(cc3OC)N(C)[C@H]3[C@@](O)(C(=O)OC)[C@H](OC(C)=O)[C@]5(CC)C=CCN6CC[C@]43[C@@H]65)C2)C1 [ANHYDROVINBLASTINE],5
8,CCN(CCCc1ccccc1)CCCc1ccccc1 [ALVERINE CITRATE],4
9,O=c1cc[nH]c(=O)[nH]1 [URACIL],7
10,CC(=O)OCC(=O)[C@@]12OC(C)(C)O[C@@H]1C[C@H]1[C@@H]3C[C@H](F)C4=CC(=O)C=C[C@]4(C)[C@@]3(F)[C@@H](O)C[C@@]12C [FLUOCINONIDE],1
11,COC(=O)Nc1nc2cc(C(=O)c3ccc(F)cc3)ccc2[nH]1 [FLUBENDAZOLE],2
12,CCN(CC)CCN1C(=O)c2c(c3c4cccc(Cl)c4n([C@@H]4O[C@H](CO)[C@@H](OC)[C@H](O)[C@H]4O)c3c3[nH]c4c(Cl)cccc4c23)C1=O [BECATECARIN],18
13,CC[C@H]1OC(=O)C[C@@H](O)[C@H](C)[C@@H](O[C@@H]2O[C@H](C)[C@@H](O)[C@H](N(C)C)[C@H]2O)[C@@H](CCN2C[C@H](C)C[C@H](C)C2)C[C@@H](C)C(=O)/C=C/C(C)=C/[C@@H]1CO[C@@H]1O[C@H](C)[C@@H](O)[C@@H](OC)[C@H]1OC [TILMICOSIN],1
14,COc1ccc2c(c1)[nH]c1c(C)nccc12 [HARMINE],3
15,CC(=O)OCC(=O)[C@@]12N=C(C)O[C@@H]1C[C@H]1[C@@H]3CCC4=CC(=O)C=C[C@]4(C)[C@H]3[C@@H](O)C[C@@]12C [DEFLAZACORT],8
16,Cc1nc2sccn2c(=O)c1CCN1CCC(=C(c2ccc(F)cc2)c2ccc(F)cc2)CC1 [RITANSERIN],1
17,O=C1NCC2(CCN(CCc3ccccc3)CC2)O1 [FENSPIRIDE],3
18,COc1cc2c(Nc3ccc(Br)cc3F)ncnc2cc1OCC1CCN(C)CC1 [VANDETANIB],1
19,CCn1cc(C(=O)O)c(=O)c2cnc(N3CCCC3)nc21 [PIROMIDIC ACID],5
20,O=C(Nc1ccc([N+](=O)[O-])cc1Cl)c1cc(Cl)ccc1O [NICLOSAMIDE],1
21,CC(C)(C)[C@]1(O)CCN2C[C@H]3c4ccccc4CCc4cccc(c43)[C@@H]2C1.Cl [(−)-BUTACLAMOL HCL],3

row,Compound,#Cases >70% cell death
1,GRAMICIDIN [GRAMICIDIN (GRAMICIDIN A SHOWN)],9
2,Cc1cc([C@@H](C)Nc2ccccc2C(=O)O)c2nc(N3CCOCC3)cc(=O)n2c1 [AZD-6482],1
3,O=C(NC1CCNCC1)c1[nH]ncc1NC(=O)c1c(Cl)cccc1Cl [AT-7519],18
4,CCCC1O[C@@H]2C[C@H]3[C@@H]4CCC5=CC(=O)C=C[C@]5(C)[C@H]4[C@@H](O)C[C@]3(C)[C@]2(C(=O)CO)O1 (stereo partly drawn) [BUDESONIDE],2
5,CN(C)C(=S)SSC(=S)N(C)C [THIRAM],4
6,IFENPRODIL TARTRATE,4
7,CCCC(=O)O[C@]1(C(=O)COC(C)=O)CC[C@H]2[C@@H]3C[C@H](F)C4=CC(=O)C=C[C@]4(C)[C@@]3(F)[C@@H](O)C[C@@]21C [DIFLUPREDNATE],1
8,CCCCCCCCCCCCCCCC[N+](C)(C)C.[Br-] [CETRIMONIUM BROMIDE],17
9,Nc1c2ccccc2nc2ccccc12 [AMINACRINE],18
10,COCc1c(C(C)C)nc(C(C)C)c(/C=C/[C@@H](O)C[C@@H](O)CC(=O)O)c1-c1ccc(F)cc1 [CERIVASTATIN],17
11,C#C[C@]1(O)CC[C@H]2[C@@H]3CCC4=Cc5oncc5C[C@]4(C)[C@H]3CC[C@@]21C [DANAZOL],1
12,CN(C)C(=O)n1cc(C(=O)c2ccn3c2CS[C@@H]3c2cccnc2)c2ccc(-c3ccc(F)cc3)cc21 [A-85783],9
13,CO[C@H]1C(=O)[C@]2(C)[C@@H](OC)C[C@H]3OC[C@@]3(OC(C)=O)[C@H]2[C@H](OC(=O)c2ccccc2)[C@]2(O)C[C@H](OC(=O)[C@H](O)[C@@H](NC(=O)OC(C)(C)C)c3ccccc3)C(C)=C1C2(C)C [CABAZITAXEL],5
14,O=C(CCCCCCC(=O)Nc1ccccc1)NO [VORINOSTAT],18
15,CC(C)[C@H](N)C(=O)OCCOCn1cnc2c(=O)[nH]c(N)nc21 [VALACICLOVIR],1
16,Nc1nc(F)nc2c1ncn2[C@@H]1O[C@H](COP(=O)(O)O)[C@@H](O)[C@@H]1O [FLUDARABINE PHOSPHATE],4
17,CC(=O)[C@@]1(O)CC[C@H]2[C@@H]3CCC4=CC(=O)CC[C@]4(C)[C@H]3CC[C@@]21C [HYDROXYPROGESTERONE],2
18,Clc1ccccc1CN1CCc2sccc2C1 [TICLOPIDINE],1
19,COc1cc(CNC(=O)CCCC/C=C/C(C)C)ccc1O [CAPSAICIN],1
